The values below come from ChEMBL document CHEMBL1133556, “Carbonic anhydrase inhibitors: water-soluble 4-sulfamoylphenylthioureas as topical intraocular pressure-lowering agents with long-lasting effects” (J Med Chem, 2000).

One data set has as its target T1, Carbonic anhydrase 4 (Bos taurus, UniProt Q95323).
T1 sequence (Q95323 whole entry): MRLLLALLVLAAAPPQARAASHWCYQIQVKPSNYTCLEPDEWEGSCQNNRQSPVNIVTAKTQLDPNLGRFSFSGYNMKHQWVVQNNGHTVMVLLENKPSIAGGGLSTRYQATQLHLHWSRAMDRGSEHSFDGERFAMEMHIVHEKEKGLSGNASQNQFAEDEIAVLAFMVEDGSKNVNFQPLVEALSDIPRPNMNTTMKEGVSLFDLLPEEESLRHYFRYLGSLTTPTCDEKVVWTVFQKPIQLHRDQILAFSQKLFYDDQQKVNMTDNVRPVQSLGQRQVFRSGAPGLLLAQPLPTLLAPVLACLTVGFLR

The target of the next data set is Carbonic anhydrase 2 (Homo sapiens, UniProt P00918).
A further data set deals with Carbonic anhydrase 1 (Homo sapiens, UniProt P00915).
For data set [1], the species on record is Oryctolagus cuniculus.
Description: Tested in vivo for lowering IOP (Intraocular Pressure)in Normotensive Rabbits at pH 7.0 after treatment with 50 uL, activity at 30 minutes
The species named for data set [2] is Oryctolagus cuniculus. The source holds these as a separate data set.
Description: Tested in vitro for transcorneal accession rates (corneal permeability) against intact cornea
The species entered for data set [3] is Oryctolagus cuniculus. This is another data set of the same source.
Description: Tested in vitro for transcorneal accession rates (corneal permeability) against cornea with no epithelium
The species entered for data set [4] is Oryctolagus cuniculus. This is another data set of the same source.
Description: Tested in vivo for lowering IOP (Intraocular Pressure)in Normotensive Rabbits at pH 7.0 after treatment with 50 uL, activity at 60 minutes
Data set [5] is filed under the species Oryctolagus cuniculus. This is another data set of the same source.
Description: Tested in vivo for lowering IOP (Intraocular Pressure)in Normotensive Rabbits at pH 7.0 after treatment with 50 uL, activity at 90 minutes
The conditions of data set [6]: octanol/water.
Description: Partition coefficient (logD) (chloroform/buffer)
The nature of the next data set: physchem. The note with it: buffer, pH 7.4.

Converted amounts (≈) assume the structure as drawn. Residues, ends and D or L forms follow the SMILES beside them. *: point of attachment. X1 = NS(=O)(=O)c1ccc(NC(=S)*)cc1

Carbonic anhydrase 1, sequence (P00915 whole entry): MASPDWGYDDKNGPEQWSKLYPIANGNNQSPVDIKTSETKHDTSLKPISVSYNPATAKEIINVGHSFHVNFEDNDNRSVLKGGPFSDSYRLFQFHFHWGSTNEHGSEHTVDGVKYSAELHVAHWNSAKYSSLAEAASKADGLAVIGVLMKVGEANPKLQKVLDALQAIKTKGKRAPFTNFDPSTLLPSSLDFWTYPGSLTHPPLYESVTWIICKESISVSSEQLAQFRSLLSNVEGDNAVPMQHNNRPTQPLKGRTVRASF
Description for Carbonic anhydrase 1: Inhibitory activity against human recombinant carbonic anhydrase I
Description for Carbonic anhydrase 2: Inhibitory activity against human recombinant carbonic anhydrase II
Description for Carbonic anhydrase 4: Inhibitory activity against bovine carbonic anhydrase IV from lung microsomes
Description for physchem: Solubility (in uM) in pH 7.40 at 25 degree C

As usually defined, the Ki is the dissociation constant of the complex between target and ligand, obtained from inhibition or displacement. The low end stands for a stronger hold on the target, the high end for a looser hold on the target. Consider `NS(=O)(=O)c1ccc(N/C(S)=N/C(Cc2ccc(O)cc2)C(=O)O)cc1` (centres undefined), for which the Ki was found to be 13 nM at Carbonic anhydrase 4, 5 nM on Carbonic anhydrase 2 and 26 nM at Carbonic anhydrase 1.

For orientation: logD means the decadic logarithm of the distribution of all forms, ionised or not, between an organic phase and buffer at a given pH. Higher therefore signals higher lipophilicity. One may read the solubility as the concentration that dissolves in the medium under given conditions. Lower therefore signals a poorly soluble substance. As to `NS(=O)(=O)c1ccc(NC(=S)NC(CC(=O)O)C(=O)O)cc1` (centres undefined), the “Delta IOP” value in the data set filed under Oryctolagus cuniculus [1] is 2 mmHg; in the data set listed under Oryctolagus cuniculus [4] it was 2.6 mmHg; in the data set filed under Oryctolagus cuniculus [5], 2 mmHg. Besides, the kin in the data set filed under Oryctolagus cuniculus [2] amounted to 100 h⁻¹; in the data set listed under Oryctolagus cuniculus [3], 800 h⁻¹. Further, the Ki is 17 nM at Carbonic anhydrase 4, 8 nM at Carbonic anhydrase 2 and 35 nM at Carbonic anhydrase 1. In [6], the logD came to 0.05. Further, the concentration in solution in “physchem” (solubility) came to 60 mM (≈ 20.8 mg/mL).

`NS(=O)(=O)c1ccc(NC(=S)NC(Cc2cnc[nH]2)C(=O)NCC(=O)O)cc1` (centres undefined): the Ki at Carbonic anhydrase 4 was 6 nM; at Carbonic anhydrase 2, 1 nM; at Carbonic anhydrase 1 it was 13 nM.

With `CC(C)C(/N=C(\S)Nc1ccc(S(N)(=O)=O)cc1)C(=O)O` (centres undefined), the Ki worked out at 13 nM at Carbonic anhydrase 4, 5 nM at Carbonic anhydrase 2 and 23 nM at Carbonic anhydrase 1.

On to `NS(=O)(=O)c1ccc(N/C(S)=N/C(C(=O)O)c2ccccc2)cc1` (centres undefined), for which the kin in the data set filed under Oryctolagus cuniculus [2] stood at 5900 h⁻¹; in the data set listed under Oryctolagus cuniculus [3] it was 14300 h⁻¹. The inhibition constant (Ki) came to 15 nM on Carbonic anhydrase 4, 6 nM on Carbonic anhydrase 2 and 40 nM on Carbonic anhydrase 1. The same compound yielded a logD in data set [6] of 3.652. The amount in solution in “physchem” (solubility) came to 54 mM (≈ 19.7 mg/mL).

As for `NS(=O)(=O)c1ccc(N/C(S)=N\CCc2ccccn2)cc1`, the Ki at Carbonic anhydrase 4 was 77 nM; on Carbonic anhydrase 2, 40 nM; on Carbonic anhydrase 1, 124 nM.

In the case of `NS(=O)(=O)c1ccc(NC(=S)N2CCCC2C(=O)O)cc1` (centres undefined), the “Delta IOP” value in the data set filed under Oryctolagus cuniculus [1] was 0 mmHg; in the data set listed under Oryctolagus cuniculus [4], 1 mmHg; in the data set listed under Oryctolagus cuniculus [5], 1 mmHg. Further, the inhibition constant Ki on Carbonic anhydrase 4 came to 68 nM; at Carbonic anhydrase 2, 25 nM; on Carbonic anhydrase 1, 110 nM.

Turning to `CC(/N=C(/S)Nc1ccc(S(N)(=O)=O)cc1)C(=O)NC(Cc1ccccc1)C(=O)O` (centres undefined), the figures for the “Delta IOP” value in the data set listed under Oryctolagus cuniculus [1], in the data set filed under Oryctolagus cuniculus [4] and in the data set filed under Oryctolagus cuniculus [5] were 0.2 mmHg, 0.2 mmHg and 3 mmHg, respectively. The inhibition constant (Ki) was found to be 13 nM at Carbonic anhydrase 4, 4 nM at Carbonic anhydrase 2 and 23 nM on Carbonic anhydrase 1.

Take `N=C(N)NCCCC(/N=C(\S)Nc1ccc(S(N)(=O)=O)cc1)C(=O)O` (centres undefined): the “Delta IOP” value worked out at 1 mmHg in the data set listed under Oryctolagus cuniculus [1], 1.2 mmHg in the data set filed under Oryctolagus cuniculus [4] and 4 mmHg in the data set filed under Oryctolagus cuniculus [5]. Besides, the values for the inhibition constant Ki at Carbonic anhydrase 4, at Carbonic anhydrase 2 and at Carbonic anhydrase 1 were 61 nM, 15 nM and 115 nM, respectively.

As to `NS(=O)(=O)c1ccc(N/C(S)=N/C(Cc2ccc(O)c(O)c2)C(=O)O)cc1` (centres undefined), the Ki on Carbonic anhydrase 4 stood at 18 nM; on Carbonic anhydrase 2 it was 7 nM; on Carbonic anhydrase 1, 35 nM.

For `NS(=O)(=O)c1ccc(NC(=S)NC(CCC(=O)O)C(=O)O)cc1` (centres undefined), the Ki on Carbonic anhydrase 4 amounted to 19 nM; on Carbonic anhydrase 2, 10 nM; at Carbonic anhydrase 1, 38 nM.

With `NS(=O)(=O)c1ccc(N/C(S)=N\CCc2ccccc2)cc1`, the Ki stood at 75 nM on Carbonic anhydrase 4, 42 nM on Carbonic anhydrase 2 and 125 nM on Carbonic anhydrase 1.

On to `NS(=O)(=O)c1ccc(N/C(S)=N/C(Cc2c[nH]c3ccccc23)C(=O)O)cc1` (centres undefined), for which the Ki on Carbonic anhydrase 4 was 24 nM; at Carbonic anhydrase 2 it was 11 nM; at Carbonic anhydrase 1 it was 47 nM.

With `NS(=O)(=O)c1ccc(NC(=S)NC(CC(=O)O)C(=O)NC(CC(=O)O)C(=O)O)cc1` (centres undefined), the figures for the Ki on Carbonic anhydrase 4, on Carbonic anhydrase 2 and on Carbonic anhydrase 1 were 32 nM, 15 nM and 50 nM, respectively.

For `CCC(C)C(/N=C(\S)Nc1ccc(S(N)(=O)=O)cc1)C(=O)O` (centres undefined), the “Delta IOP” value worked out at 2 mmHg in the data set filed under Oryctolagus cuniculus [1], 4 mmHg in the data set listed under Oryctolagus cuniculus [4] and 0.3 mmHg in the data set filed under Oryctolagus cuniculus [5]. For the same compound, the inhibition constant Ki was 10 nM on Carbonic anhydrase 4, 4 nM on Carbonic anhydrase 2 and 22 nM on Carbonic anhydrase 1.

`NS(=O)(=O)c1ccc(NC(=S)N[C@@H](CC(=O)O)C(=O)N[C@@H](CC(=O)O)C(=O)N[C@@H](CC(=O)O)C(=O)N[C@@H](CC(=O)O)C(=O)O)cc1` (X1-DDDD-OH): the Ki came to 27 nM at Carbonic anhydrase 4, 10 nM at Carbonic anhydrase 2 and 59 nM at Carbonic anhydrase 1.

For `NS(=O)(=O)c1ccc(N/C(S)=N\c2cccc(C(=O)O)c2)cc1`, the Ki on Carbonic anhydrase 4 was determined as 36 nM; on Carbonic anhydrase 2 it was 18 nM; on Carbonic anhydrase 1, 50 nM.

Regarding `NS(=O)(=O)c1ccc(N/C(S)=N\CC(=O)O)cc1`, the “Delta IOP” value in the data set listed under Oryctolagus cuniculus [1] was found to be 3 mmHg; in the data set filed under Oryctolagus cuniculus [4], 5.9 mmHg; in the data set filed under Oryctolagus cuniculus [5], 0.5 mmHg. Moreover, the Ki at Carbonic anhydrase 4 came out at 39 nM; on Carbonic anhydrase 2, 20 nM; at Carbonic anhydrase 1, 62 nM.

Regarding `CC(/N=C(/S)Nc1ccc(S(N)(=O)=O)cc1)C(=O)O` (centres undefined), the “Delta IOP” value in the data set listed under Oryctolagus cuniculus [1] was 4 mmHg; in the data set filed under Oryctolagus cuniculus [4] it was 5 mmHg; in the data set listed under Oryctolagus cuniculus [5], 5.2 mmHg. Moreover, the results for the inhibitory constant (Ki) on Carbonic anhydrase 4, at Carbonic anhydrase 2 and at Carbonic anhydrase 1 were 36 nM, 12 nM and 54 nM, respectively.

In the case of `CSCCC(/N=C(\S)Nc1ccc(S(N)(=O)=O)cc1)C(=O)O` (centres undefined), the Ki was found to be 13 nM at Carbonic anhydrase 4, 4 nM at Carbonic anhydrase 2 and 27 nM at Carbonic anhydrase 1.

As to `CC(C)CC(/N=C(\S)Nc1ccc(S(N)(=O)=O)cc1)C(=O)NCC(=O)O` (centres undefined), the Ki stood at 13 nM at Carbonic anhydrase 4, 5 nM on Carbonic anhydrase 2 and 20 nM at Carbonic anhydrase 1.

For the compound `NS(=O)(=O)c1ccc(NC(=S)N2CCC[C@H]2C(=O)NCC(=O)NCC(=O)O)cc1`, the Ki on Carbonic anhydrase 4 stood at 11 nM; at Carbonic anhydrase 2 it was 3 nM; at Carbonic anhydrase 1, 20 nM.

On to `NS(=O)(=O)c1ccc(N/C(S)=N\CCC(=O)O)cc1`, for which the Ki at Carbonic anhydrase 4 turned out to be 35 nM; at Carbonic anhydrase 2, 11 nM; at Carbonic anhydrase 1, 47 nM.

`CC(O)C(NC(=S)Nc1ccc(S(N)(=O)=O)cc1)C(=O)O` (centres undefined): the Ki at Carbonic anhydrase 4 is 16 nM; at Carbonic anhydrase 2, 4 nM; on Carbonic anhydrase 1 it was 30 nM.

On to `NS(=O)(=O)c1ccc(N/C(S)=N\c2ccc(C(=O)O)cc2)cc1`, for which the inhibitory constant (Ki) on Carbonic anhydrase 4 was 40 nM; on Carbonic anhydrase 2, 16 nM; at Carbonic anhydrase 1, 59 nM.

In the case of `NS(=O)(=O)c1ccc(N=C=S)cc1`, the results for the Ki at Carbonic anhydrase 2 and at Carbonic anhydrase 1 were 185 nM and 5000 nM, respectively.

With `NC(=O)CCC(NC(=S)Nc1ccc(S(N)(=O)=O)cc1)C(=O)O` (centres undefined), the Ki came to 23 nM on Carbonic anhydrase 4, 9 nM at Carbonic anhydrase 2 and 40 nM on Carbonic anhydrase 1.

On to `CC(=O)/N=c1/sc(S(N)(=O)=O)nn1C` [METHAZOLAMIDE], for which the kin in the data set filed under Oryctolagus cuniculus [2] was 1900 h⁻¹; in the data set filed under Oryctolagus cuniculus [3], 13000 h⁻¹. This compound had a pH-dependent lipophilicity (logD) in data set [6] of 0.06.

As for `NS(=O)(=O)c1ccc(NC(=S)NCC(=O)NCC(=O)O)cc1`, the Ki on Carbonic anhydrase 4 was 32 nM; at Carbonic anhydrase 2, 15 nM; on Carbonic anhydrase 1, 54 nM.

Regarding `NS(=O)(=O)c1ccc(N/C(S)=N/C(Cc2ccccc2)C(=O)O)cc1` (centres undefined), the “Delta IOP” value in the data set filed under Oryctolagus cuniculus [1] came out at 4 mmHg; in the data set listed under Oryctolagus cuniculus [4], 4.1 mmHg; in the data set filed under Oryctolagus cuniculus [5], 3 mmHg. Also, the figures for the Ki on Carbonic anhydrase 4, on Carbonic anhydrase 2 and on Carbonic anhydrase 1 were 13 nM, 6 nM and 30 nM, respectively.

In the case of `NS(=O)(=O)c1ccc(NC(S)=NC(Cc2c[nH]cn2)C(=O)NC(Cc2ccccc2)C(=O)O)cc1` (centres undefined), the results for the Ki on Carbonic anhydrase 4, at Carbonic anhydrase 2 and at Carbonic anhydrase 1 were 9 nM, 3 nM and 21 nM, respectively.
